According to patent US6815546B2, “Analogues of camptothecin, their use as medicaments and the pharmaceutical compositions containing them” (Societe de Recherches et d'Applications Scientifiques …, priority 1995, dated 2004):

Legend:
Assay type in all cases: cell-based
U87 (human glioblastoma) = experiment: Test on cell proliferation (MTT test), U87; conditions: 72 hours
Experimental: (§1) a. Eight tumoral cell lines are used in this study: L1210 (mouse lymphocytic leukemia), HCT15 and LOVO (cell lines of human colon adenocarcinoma), A549 (human lung carcinoma), A172, U373 et U87 (human glioblastoma). All these lines are obtained from the American Type Culture Collection (ATCC), Rockville, Md. The L1210 cell cultures in suspension are cultured in Dulbecco's modified Eagle's medium (DMEM) (BioWhitaker, Verviers, Belgium) together with 10% of foetal calf serum inactivated by heating, 2 mM of glutamine, 50 μg/ml of penicillin and 50 μg/ml of streptomycin. The HT29 cells are cultured in mono-layer cultures in a McCoy 5a medium (Gibco, Paisley, United Kingdom) together with 10% of foetal calf serum inactivated by heat plus 2 mM of glutamine and 50 μg/ml of gentamycin. The other cells are cultured in an Earle's modified essential medium (EMEM; Gibco, Paisley, United Kingdom) together with 5% foetal calf serum inactivated by heat, 2 mM of glutamine, 50 U/ml of penicillin and 50 μg/ml of streptomycin. All the cell lines are cultured at 37° C. in a humidified atmosphere containing 95% air and 5% CO2.
(§2) Inhibition of the tumor cell line proliferation is determined using an MTT test. 1500 L1210 cells in a culture medium (according to the needs of the cell medium) are seeded in a well of a micro-well plate (tissue culture level: 96 wells, flat bottom) 24 hours before treatment with the compounds to be tested. For these dose-response studies, the cells are incubated with each of the compounds to be tested or their corresponding solvent (controls) for 48 hours over a final concentration range of 1.10^−10 to 1.10^−4 M. All the compounds are dissolved just before use in dimethylsulphoxide (DMSO) at a concentration of 50 mM. Other dilutions of the medicaments are carried out in the culture medium. The final concentration of DMSO never exceeds 0.2% (v/v). As controls, the solutions of medicaments are replaced with the solvent which is diluted successively in the same way as the compounds to be tested.
(§3) After the incubation period, the labeling reagent MTT (3-[4,5-dimethylthiazol-2-yl]-2,5-diphenyltetrazolium bromide; Thiazol blue, Sigma M 565, Sigma, St Louis, Mo.) is added at a final concentration of 0.3 mg/ml to each well. The cells are incubated for 4 hours at 37° C. in a humidified atmosphere. This stage allows the mitochondrial dehydrogenase of the living cells to convert the yellow tetrazolium salt MTT into crimson formazan crystals. The supernatant part is eliminated and the formazan crystals formed are solubilized with DMSO. The resultant coloured solution is quantified by absorbance at 570 nm by using a multi-cuvette scanning spectrophotometer. The data concerning the proliferation is expressed as a percentage of living cells in the treated wells, divided by the living cells in the controls. Each point represents the average of three independent experiments, each experiment represents six determinations.
(§4) For the other cell lines (HCT15, LOVO, A549, A172, U373, U87), 1000 to 2000 cells are seeded in the well of a micro-well plate 24 hours before medicinal treatment. […]
(§5) The results are expressed as percentages of the calculated proliferation by the optical density (OD) of the cells treated with a medicament divided by the OD of the control cells (cells treated with DMSO). As represented in Table II, the compounds to be tested have inhibited the proliferation of cells in a dose-dependent manner.

[1] = test system: L1210 (mouse lymphocytic leukemia); experiment: Test on cell proliferation (MTT test), L1210; conditions: 48 hours
Experimental: as §1, §2, §3, §5

[2] = test system: U373 (human glioblastoma); experiment: Test on cell proliferation (MTT test), U373; conditions: 72 hours
Experimental: as §1, §2, §3, §4, §5

[3] = test system: LOVO (cell lines of human colon adenocarcinoma); experiment: Test on cell proliferation (MTT test), LOVO; conditions: 72 hours
Experimental: as §1, §2, §3, §4, §5

[4] = test system: A172 (human glioblastoma); experiment: Test on cell proliferation (MTT test), A172; conditions: 72 hours
Experimental: as §1, §2, §3, §4, §5

[5] = test system: HCT15 (cell lines of human colon adenocarcinoma); experiment: Test on cell proliferation (MTT test), HCT15; conditions: 72 hours
Experimental: as §1, §2, §3, §4, §5

[6] = test system: A549 (human lung carcinoma); experiment: Test on cell proliferation (MTT test), A549; conditions: 72 hours
Experimental: as §1, §2, §3, §4, §5

With `CCC(O)(CC(=O)O)c1cc2n(c(=O)c1CO)Cc1cc3ccccc3nc1-2` (stereo not shown) [Example 4, 3-hydroxy-3-[8-(hydroxymethyl)-9-oxo-9,11-dihydroindolizino [1,2-b]quinolin-7-yl]pentanoic acid] the “PERCENTAGE OF CELL PROLIFERATION” value (U87 (human glioblastoma); 0.1 nM) was 98.00%, the “PERCENTAGE OF CELL PROLIFERATION” value (U87 (human glioblastoma); 1 nM) was 101.00% and the “PERCENTAGE OF CELL PROLIFERATION” value (U87 (human glioblastoma); 10 nM) was 98.00%. The “PERCENTAGE OF CELL PROLIFERATION” value (U87 (human glioblastoma); 100 nM) was 74.00%, the “PERCENTAGE OF CELL PROLIFERATION” value (U87 (human glioblastoma); 1 000 nM) was 11.00% and the “PERCENTAGE OF CELL PROLIFERATION” value (U87 (human glioblastoma); 10 000 nM) was 6.00%. The “PERCENTAGE OF CELL PROLIFERATION” value (U87 (human glioblastoma); 100 000 nM) was 2.00%, the “PERCENTAGE OF CELL PROLIFERATION” value ([1]; 0.1 nM) was 92.14% and the “PERCENTAGE OF CELL PROLIFERATION” value ([1]; 1 nM) was 97.14%. For the same compound, the “PERCENTAGE OF CELL PROLIFERATION” value ([1]; 10 nM) was 91.08%, the “PERCENTAGE OF CELL PROLIFERATION” value ([1]; 100 nM) was 86.28% and the “PERCENTAGE OF CELL PROLIFERATION” value ([1]; 1 000 nM) was 46.79%. For the same compound, the “PERCENTAGE OF CELL PROLIFERATION” value ([1]; 10 000 nM) was 27.80%, the “PERCENTAGE OF CELL PROLIFERATION” value ([1]; 100 000 nM) was 8.09% and the “PERCENTAGE OF CELL PROLIFERATION” value ([2]; 0.1 nM) was 86.00%. The “PERCENTAGE OF CELL PROLIFERATION” value ([2]; 1 nM) was 85.00%, the “PERCENTAGE OF CELL PROLIFERATION” value ([2]; 10 nM) was 89.00% and the “PERCENTAGE OF CELL PROLIFERATION” value ([2]; 100 nM) was 63.00%. The “PERCENTAGE OF CELL PROLIFERATION” value ([2]; 1 000 nM) was 30.00%, the “PERCENTAGE OF CELL PROLIFERATION” value ([2]; 10 000 nM) was 16.00% and the “PERCENTAGE OF CELL PROLIFERATION” value ([2]; 100 000 nM) was 2.00%. For the same compound, the “PERCENTAGE OF CELL PROLIFERATION” value ([3]; 0.1 nM) was 80.00%, the “PERCENTAGE OF CELL PROLIFERATION” value ([3]; 1 nM) was 75.00% and the “PERCENTAGE OF CELL PROLIFERATION” value ([3]; 10 nM) was 79.00%. For the same compound, the “PERCENTAGE OF CELL PROLIFERATION” value ([3]; 100 nM) was 69.00%, the “PERCENTAGE OF CELL PROLIFERATION” value ([3]; 1 000 nM) was 38.00% and the “PERCENTAGE OF CELL PROLIFERATION” value ([3]; 10 000 nM) was 21.00%. The “PERCENTAGE OF CELL PROLIFERATION” value ([3]; 100 000 nM) was 5.00%, the “PERCENTAGE OF CELL PROLIFERATION” value ([4]; 0.1 nM) was 93.00% and the “PERCENTAGE OF CELL PROLIFERATION” value ([4]; 1 nM) was 92.00%. The “PERCENTAGE OF CELL PROLIFERATION” value ([4]; 10 nM) was 98.00%, the “PERCENTAGE OF CELL PROLIFERATION” value ([4]; 100 nM) was 97.00% and the “PERCENTAGE OF CELL PROLIFERATION” value ([4]; 1 000 nM) was 44.00%. The “PERCENTAGE OF CELL PROLIFERATION” value ([4]; 10 000 nM) was 31.00%, the “PERCENTAGE OF CELL PROLIFERATION” value ([4]; 100 000 nM) was 10.00% and the “PERCENTAGE OF CELL PROLIFERATION” value ([5]; 0.1 nM) was 91.00%. The “PERCENTAGE OF CELL PROLIFERATION” value ([5]; 1 nM) was 92.00%, the “PERCENTAGE OF CELL PROLIFERATION” value ([5]; 10 nM) was 86.00% and the “PERCENTAGE OF CELL PROLIFERATION” value ([5]; 100 nM) was 78.00%. For the same compound, the “PERCENTAGE OF CELL PROLIFERATION” value ([5]; 1 000 nM) was 54.00%, the “PERCENTAGE OF CELL PROLIFERATION” value ([5]; 10 000 nM) was 20.00% and the “PERCENTAGE OF CELL PROLIFERATION” value ([5]; 100 000 nM) was 7.00%. The “PERCENTAGE OF CELL PROLIFERATION” value ([6]; 0.1 nM) was 71.00%, the “PERCENTAGE OF CELL PROLIFERATION” value ([6]; 1 nM) was 76.00% and the “PERCENTAGE OF CELL PROLIFERATION” value ([6]; 10 nM) was 71.00%. For the same compound, the “PERCENTAGE OF CELL PROLIFERATION” value ([6]; 100 nM) was 56.00%, the “PERCENTAGE OF CELL PROLIFERATION” value ([6]; 1 000 nM) was 36.00% and the “PERCENTAGE OF CELL PROLIFERATION” value ([6]; 10 000 nM) was 22.00%. For the same compound, the “PERCENTAGE OF CELL PROLIFERATION” value ([6]; 100 000 nM) was 12.00%.
